Test results reported in patent US20250059164A1, “IRAK DEGRADERS AND USES THEREOF” (Kymera Therapeutics, Inc., priority 2023, published 2025).

Tests used:
[1] = Rodent pharmacokinetics (rat PK); type: in vivo; settings: po, dosed intravenously or orally by gavage, plasma, read-out: F % (bioavailability)
How it was run: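 F % is reported as a letter code: A for ≥5%, B for ≤5%. It was derived from rat plasma profiles after intravenous or oral gavage dosing, with jugular vein sampling from predose to 24 h (5 min point for IV only).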

IRAK4 = target: T1, IRAK4 (Homo sapiens, UniProt Q9NWZ3); assay: IRAK4 MSD degradation in OCI-LY10; type: cell-based; settings: OCI-LY10 cells, 24 hrs, Meso Scale Discovery
T1 construct: endogenous in cells; host or cells: OCI-LY10
T1 sequence (Q9NWZ3 1-460): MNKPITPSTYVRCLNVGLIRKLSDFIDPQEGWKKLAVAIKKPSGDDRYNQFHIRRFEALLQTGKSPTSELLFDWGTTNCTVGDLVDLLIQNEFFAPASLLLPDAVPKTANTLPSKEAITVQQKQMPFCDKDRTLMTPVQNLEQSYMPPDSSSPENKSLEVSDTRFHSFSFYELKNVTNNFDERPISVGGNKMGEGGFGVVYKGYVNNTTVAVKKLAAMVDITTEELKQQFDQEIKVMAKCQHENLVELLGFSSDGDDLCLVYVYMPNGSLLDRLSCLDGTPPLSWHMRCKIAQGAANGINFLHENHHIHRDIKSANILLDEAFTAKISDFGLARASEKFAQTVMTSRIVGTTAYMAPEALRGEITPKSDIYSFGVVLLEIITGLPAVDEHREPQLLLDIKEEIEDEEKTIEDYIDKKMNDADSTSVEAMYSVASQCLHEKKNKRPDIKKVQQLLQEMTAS
How it was run: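 Remaining IRAK4 protein measured by Meso Scale Discovery electrochemiluminescence sandwich assay on lysates of OCI-LY10 cells. Cells were exposed for 4 to 24 hours (37° C., 5% CO2) to eight 1:3-diluted concentrations starting at 1 to 10 μM. DC50 derived by three-parameter logistic fitting.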

| Structure (SMILES) | bioavailability [1] | DC50 (IRAK4) |
| --- | --- | --- |
| COc1cc2nn([C@H]3CC[C@H](CN4CC[C@@H](c5cccc6c5n(C)c(=O)n6C5CCC(=O)NC5=O)[C@H](F)C4)CC3)cc2cc1NC(=O)c1cncc(C(F)(F)F)n1 (some centres unmarked) [I-189] | ≤ 5% | < 0.01 µM |
| Cn1c(=O)n(C2CCC(=O)NC2=O)c2cccc([C@@H]3CCN(C[C@H]4CC[C@H](n5cc6cc(NC(=O)c7cc(C(F)(F)F)cnn7)ccc6n5)CC4)C[C@H]3F)c21 (some centres unmarked) [I-175] | ≤ 5% | > 0.2 µM |
| Cn1c(=O)n(C2CCC(=O)NC2=O)c2cccc([C@@H]3CCN(C[C@H]4CC[C@H](c5cn6cc(NC(=O)c7cncc(C(F)(F)F)n7)ccc6n5)CC4)C[C@H]3F)c21 (some centres unmarked) [I-193] | ≤ 5% | < 0.01 µM |
| Cn1c(=O)n(C2CCC(=O)NC2=O)c2cccc(N3CC4(CCN(C[C@H]5CC[C@H](c6nc7cc(C(C)(C)O)c(NC(=O)c8cccc(C(F)(F)F)n8)cc7o6)CC5)CC4(F)F)C3)c21 (some centres unmarked) [I-411] | ≥ 5% | > 0.2 µM |
| Cn1c(=O)n(C2CCC(=O)NC2=O)c2cccc([C@H]3CCN(C[C@H]4CC[C@H](n5cc6cc(NC(=O)c7cncc(C#N)c7)c(C(C)(C)O)cc6n5)CC4)CC3(F)F)c21 (single isomer, unassigned) [I-390] | ≤ 5% | < 0.01 µM |
| Cn1c(=O)n(C2CCC(=O)NC2=O)c2cccc([C@@H]3CCN(C[C@H]4CC[C@H](n5cc6cc(NC(=O)c7cncc(C(F)(F)F)n7)ncc6n5)CC4)CC3(F)F)c21 (single isomer, unassigned) [I-206] | ≥ 5% | 0.01 to 0.1 µM |
| Cc1cncc(C(=O)Nc2cc3cn([C@H]4CC[C@H](CN5CCC6(CCN(c7cccc8c7n(C)c(=O)n8C7CCC(=O)NC7=O)CC6)C(F)(F)C5)CC4)nc3cc2C(C)(C)O)c1 (some centres unmarked) [I-361] | ≤ 5% | < 0.01 µM |
| Cn1c(=O)n(C2CCC(=O)NC2=O)c2cccc([C@@H]3CCN(C[C@H]4CC[C@H](c5nc6cc(C(C)(C)O)c(NC(=O)c7cncc(C(F)(F)F)n7)cc6o5)CC4)C[C@H]3F)c21 (some centres unmarked) [I-288] | ≥ 5% | < 0.01 µM |
| CN(C[C@H]1CC[C@H](c2nc3cc(C(C)(C)O)c(NC(=O)c4cncc(C(F)(F)F)c4)cc3s2)CC1)[C@@H]1CCN(c2cccc3c2n(C)c(=O)n3C2CCC(=O)NC2=O)C[C@H]1F (single isomer, unassigned) [I-159] | ≥ 5% | 0.01 to 0.1 µM |
| CC(C)Oc1cc2nn([C@H]3CC[C@H](CN4CC[C@@H](c5cccc6c5n(C)c(=O)n6C5CCC(=O)NC5=O)[C@H](F)C4)CC3)cc2cc1NC(=O)c1cncc(C#N)c1 (some centres unmarked) [I-275] | ≤ 5% | < 0.01 µM |
| Cn1nc(C2CCC(=O)NC2=O)c2cccc([C@H]3CCN(C[C@H]4CC[C@H](n5cc6cc(NC(=O)c7cncc(C#N)c7)c(C(C)(C)O)cc6n5)CC4)C[C@@H]3F)c21 (single isomer, unassigned) [I-363] | ≥ 5% | < 0.01 µM |
| Cn1c(=O)n(C2CCC(=O)NC2=O)c2cccc([C@@H]3CCN(C[C@H]4CC[C@H](n5cc6cc(NC(=O)c7cncc(C(F)F)n7)ccc6n5)CC4)C[C@H]3F)c21 (some centres unmarked) [I-323] | ≤ 5% | < 0.01 µM |
| Cn1c(=O)n(C2CCC(=O)NC2=O)c2cccc([C@@H]3CCN(C[C@H]4CC[C@H](c5cc6cc(NC(=O)c7cncc(C(F)(F)F)n7)ccn6n5)CC4)C[C@H]3F)c21 (some centres unmarked) [I-194] | ≥ 5% | < 0.01 µM |
| Cn1c(=O)n(C2CCC(=O)NC2=O)c2cccc([C@@H]3CCN(C[C@H]4CC[C@H](n5cc6cc(NC(=O)c7cncc(C#N)c7)c(C(C)(C)O)cc6n5)CC4)CC3(F)F)c21 (single isomer, unassigned) [I-389] | ≤ 5% | < 0.01 µM |

Continued, values first:

| bioavailability [1] | DC50 (IRAK4) | Structure (SMILES) |
| --- | --- | --- |
| ≤ 5% | > 0.2 µM | O=C1CCN(c2cc(C(=O)N3CCN(C[C@H]4CC[C@H](n5cc6cc(NC(=O)c7cncc(C(F)(F)F)n7)ccc6n5)CC4)CC3)ncc2Cl)C(=O)N1 [I-305] |
| ≤ 5% | < 0.01 µM | Cn1c(=O)n(C2CCC(=O)NC2=O)c2cccc([C@@H]3CCN(C[C@H]4CC[C@H](n5cc6cc(NC(=O)c7cncc(OC(F)F)n7)ncc6n5)CC4)C[C@H]3F)c21 (some centres unmarked) [I-337] |
| ≤ 5% | < 0.01 µM | Cn1c(=O)n(C2CCC(=O)NC2=O)c2cccc([C@@H]3CCN(C[C@H]4CC[C@H](c5cn6cc(NC(=O)c7cccc(C(F)(F)F)c7)ccc6n5)CC4)C[C@H]3F)c21 (some centres unmarked) [I-274] |
| ≤ 5% | < 0.01 µM | COc1cc2nn([C@H]3CC[C@H](CN4CC[C@H](c5cccc6c5c(C)nn6C5CCC(=O)NC5=O)[C@@H](F)C4)CC3)cc2cc1NC(=O)c1cncc(C#N)c1 (single isomer, unassigned) [I-266] |
| ≤ 5% | < 0.01 µM | Cc1cncc(C(=O)Nc2ccc3nn([C@H]4CC[C@H](CN5CC[C@@H](c6cccc7c6n(C)c(=O)n7C6CCC(=O)NC6=O)[C@H](F)C5)CC4)cc3c2)n1 (some centres unmarked) [I-307] |
| ≥ 5% | < 0.01 µM | Cn1nc(C2CCC(=O)NC2=O)c2cccc([C@@H]3CCN(C[C@H]4CC[C@H](n5cc6cc(NC(=O)c7cncc(C#N)c7)c(C(C)(C)O)cc6n5)CC4)CC3(F)F)c21 (single isomer, unassigned) [I-222] |
| ≤ 5% | < 0.01 µM | Cn1c(=O)n(C2CCC(=O)NC2=O)c2cccc(N3CCC4(CCN(C[C@H]5CC[C@H](n6cc7cc(NC(=O)c8cncc(C#N)c8)c(C(C)(C)O)cc7n6)CC5)CC4(F)F)CC3)c21 (mixture of isomers) [I-136, 5-Cyano-N-[2-[4-[[9-[1-(2,6-dioxo-3-piperidyl)-3-methyl-2-oxo-benzimidazol-4-yl]-5,5-difluoro-3,9-diazaspiro[5.5]undecan-3-yl]methyl]cyclohexyl]-6-(1-hydroxy-1-methyl-ethyl)indazol-5-yl]pyridine-3-carboxamide] |
| ≤ 5% | < 0.01 µM | COc1cc2nn([C@H]3CC[C@H](CN4CCC5(CCN(c6cccc7c(C8CCC(=O)NC8=O)nn(C)c67)CC5)C(F)(F)C4)CC3)cc2cc1NC(=O)c1cncc(C#N)c1 (some centres unmarked) [I-132] |
| ≥ 5% | < 0.01 µM | CN(C[C@H]1CC[C@H](c2nc3cc(C(C)(C)O)c(NC(=O)c4cncc(C(F)(F)F)n4)cc3s2)CC1)[C@@H]1CCN(c2cccc3c2n(C)c(=O)n3C2CCC(=O)NC2=O)C[C@@H]1F (single isomer, unassigned) [I-309] |
| ≤ 5% | 0.01 to 0.1 µM | COc1cc2nc([C@H]3CC[C@H](CN4CCC5(CN(c6cccc7c6n(C)c(=O)n7C6CCC(=O)NC6=O)C5)C(F)(F)C4)CC3)sc2cc1NC(=O)c1cncc(C#N)c1 (some centres unmarked) [I-110] |
| ≤ 5% | < 0.01 µM | Cn1c(=O)n(C2CCC(=O)NC2=O)c2cccc(N3CC4(CCN(C[C@H]5CC[C@H](n6cc7cc(NC(=O)c8cccc(C(F)(F)F)c8)ccc7n6)CC5)CC4(F)F)C3)c21 (some centres unmarked) [I-254] |
| ≤ 5% | < 0.01 µM | Cn1c(=O)n(C2CCC(=O)NC2=O)c2cccc([C@@H]3CCN(C[C@H]4CC[C@H](n5cc6cc(NC(=O)c7cncc(C8CC8)n7)ccc6n5)CC4)C[C@H]3F)c21 (some centres unmarked) [I-311] |
| ≤ 5% | > 0.2 µM | Cn1c(=O)n(C2CCC(=O)NC2=O)c2cccc(N3CC(COC[C@H]4CC[C@H](n5cc6cc(NC(=O)c7cccc(C(F)(F)F)c7)ncc6n5)CC4)C3)c21 (some centres unmarked) [I-269] |
| ≤ 5% | 0.01 to 0.1 µM | COc1cc2nn([C@H]3CC[C@H](COCC4CN(c5cccc6c5n(C)c(=O)n6C5CCC(=O)NC5=O)C4)CC3)cc2cc1NC(=O)c1cncc(C#N)c1 (some centres unmarked) [I-270] |
